According to patent US20210228621A1, “COMPOSITION FOR SKIN WOUNDS” (SUMITOMO SEIKA CHEMICALS CO., LTD., priority 2018, published 2021):

Experiment: CO concentration of the CO-containing compositions analyzed by gas chromatography
Format: physicochemical
Details: about 2 atm; for CO concentration of liquid phase obtained by actual measurement: solvent H2O; for CO concentration in liquid phase obtained by actual measurement: solvent carbomer aqueous solution; for CO concentration of IPM: solvent isopropyl myristate
Procedure: (§1) Pure water (2.5 mL) was placed in a vial. (3 mL, produced by Maruemu Corporation), and the vial was sealed with a rubber stopper and an aluminum seal. Next, a gas (N2 balance) having an arbitrarily adjusted CO concentration was collected in a Tedlar bag (1 L, produced by AS ONE Corporation). The air in the gas phase in the vial was replaced with the gas in the Tedlar bag until pressure reached about 2 atm by using a gas-tight syringe (M-GAN500, produced by Ito Corporation). Subsequently, the resulting product was allowed to stand until CO in the gas phase was dissolved in the liquid phase to reach equilibrium.
The CO concentration of the compositions was analyzed by gas chromatography (GC-2014 FID produced by Shimadzu Corporation).
as §1, with “Isopropyl myristate (IPM: Wako first grade, produced by Fujifilm Wako Pure” for “Pure”, “Chemical Corporation)” for “water”, “vial” for “vial.”, “(MS-GAN500,” for “(M-GAN500,”
The CO concentration of the obtained compositions was analyzed by gas chromatography (GC-2014 FID produced by Shimadzu Corporation). When the CO (%) in the gas phase in the Tedlar bag was 18%, the CO concentration of IPM was 1500 μM. When the CO (%) in the gas phase in the Tedlar bag was 100%, the CO concentration of IPM was 9000 μM.
as §1, with “The carbomer aqueous solution” for “Pure water”, “vial” for “vial.”, “(MS-GAN500,” for “(M-GAN500,”
as §1, with “The hydroxyethyl cellulose aqueous solution” for “Pure water”, “vial” for “vial.”, “(MS-GAN500,” for “(M-GAN500,”
The CO concentration of the obtained CO-containing compositions was analyzed by gas chromatography (GC-2014 FID produced by Shimadzu Corporation). When the CO (%) in the gas phase in the Tedlar bag was 100%, the CO concentration in the hydroxyethyl cellulose aqueous solution was 1500 μM.

[1] = CO in gas phase in Tedlar bag 8% (theoretical value)
[2] = CO in gas phase in Tedlar bag 100% (theoretical value)

[C-]#[O+] [CO, carbon monoxide]
CO concentration of liquid phase obtained by actual measurement [1]: 100 µM
CO concentration of liquid phase obtained by actual measurement (CO in gas phase in Tedlar bag 34% (theoretical value)): 500 µM
CO concentration of liquid phase obtained by actual measurement (CO in gas phase in Tedlar bag 67% (theoretical value)): 1000 µM
CO concentration of liquid phase obtained by actual measurement [2]: 1500 µM
CO concentration in liquid phase obtained by actual measurement [1]: 100 µM
CO concentration in liquid phase obtained by actual measurement (CO in gas phase in Tedlar bag 35% (theoretical value)): 500 µM
CO concentration in liquid phase obtained by actual measurement [2]: 1500 µM
CO concentration in the hydroxyethyl cellulose aqueous solution (solvent hydroxyethyl cellulose aqueous solution, CO in gas phase in Tedlar bag 100%): 1500 µM
CO concentration of IPM (CO in gas phase in Tedlar bag 18%): 1500 µM
CO concentration of IPM (CO in gas phase in Tedlar bag 100%): 9000 µM
